Measurements taken from publication PMC11352258, “The Influence of Betulin and Its Derivatives on Selected Colorectal Cancer Cell Lines’ Viability and Their Antioxidant Systems” (Cells, 2024).
Where “and” joins values, the source holds several entries; their conditions need not be identical. Identical values can stand only once.

What was measured:
SW1116 cells [1] = assay: MTT cytotoxicity assay, SW1116; conditions: for viability at 10 µg/mL / IC50: Homo sapiens, SW 1116, 24 h; for IC50: read-out: IC50 value
Protocol: (§1) Six colorectal cancer cell lines, RKO, HT29, DLD-1, HCT116, Caco2 and SW1116 (CRL-2577, HTB-38, CCL-221, CCL-247, HTB-37, CCL-233; ATCC, Manassas, VA, USA, respectively, for CRC lines), and one normal cell line, CCD-841CoN (CRL-1790, ATCC, USA), were routinely cultured at 37 °C in a 5% CO2 incubator (Direct Heat CO2; Thermo Scientific, Waltham, MA, USA) in cell line-appropriate culture medium according to the manufacturer’s recommendations. Eagle’s minimum essential medium (EMEM) was used to culture RKO, Caco2 and CCD-841CoN lines, while McCoy’s 5A medium was used for HT29 and HCT116 lines. DLD-1 cells were grown in RPMI-1640 medium, whereas SW1116 cells were maintained in Leibovitz’s L-15 medium. All culture media were supplemented with 10% fetal bovine serum (EuroClone, Milan, Italy), and gentamycin at the concentration […] (BioWhittaker, Lonza, Basel, Switzerland) was also applied to prevent culture contamination.
(§2) For this purpose, cells were exposed to the test compound for 24 h at concentrations of 0.1, 1, 10, 20, 50 and 100 μg/mL. Control cells were not treated with the compounds. MTT (0.25 mg/mL) was then added to the cultures and incubated for 3 h at 37 °C. After a time, the cells were washed with phosphate buffered saline (PBS), and next, formazan dye was dissolved in 100 μL of dimethyl sulfoxide (Sigma-Aldrich, St Louis, MO, USA). Absorbance was measured at 540 nm using a Wallac 1420 VICTOR microplate reader (PerkinElmer, Waltham, MA, USA).

[2] = system: SOD2 gene expression in SW1116 cells; assay: SOD2 mRNA, real-time RT-qPCR, SW1116; assay type: cell-based; conditions: SW1116, 10 µg/mL, 24 h
Protocol: (§3) In addition, two colorectal cancer cell lines, RKO and SW1116, were distinguished based on a different response to the EB5 derivative. To perform subsequent analyses, the selected CRC lines were treated with EB5 derivative at a concentration of 10 µg/mL for 24 h. Untreated cells were used as a negative control. Three biological replicates were performed.
(§4) Total RNA from treated cells was extracted using TRIzol reagent (Sigma-Aldrich, St Louis, MO, USA) according to the manufacturer’s instructions. The obtained RNA was assessed qualitatively and quantitatively by agarose gel electrophoresis and by spectrophotometric measurement using MaestroNano MN-913 (MaestroGen Inc., Las Vegas, NV, USA), respectively. The obtained extracts provided the starting material for the assessment of genes changes at the mRNA level.
(§5) Changes in the expression of SOD1, SOD2, CAT and GPX3 genes involved in antioxidant systems were assessed by real-time RT-qPCR using a LightCycler® 480 System apparatus (Roche, Basel, Switzerland). A commercially purchased GoTaq® 1-Step RT-qPCR System (Promega, Madison, WI, USA) was used, while the primers and reaction conditions were the same as in the previous study performed by Kruszniewska-Rajs et al.. GAPDH was used as the reference gene. The mRNA expression level studied genes were then determined by the 2^−ΔCt relative quantification method. All samples were tested in triplicate. The specificity of the reaction was evaluated based on the melting temperature curve, as well as using electrophoresis of the amplification products in a 2% agarose gel.

RKO cells [3] = assay: MTT cytotoxicity assay, RKO; conditions: 24 h; for viability at 10 µg/mL / IC50: Homo sapiens; for IC50: read-out: IC50 value
Protocol: as §1, §2

[4] = system: superoxide dismutase (SOD) activity in SW1116 cells; assay: SOD activity in SW1116 cells; assay type: cell-based; conditions: SW1116, 10 µg/mL, 24 h
Protocol: as §3
(§6) To examine the antioxidant capacity of the cells as well as lipid peroxidation and to evaluate the activity of antioxidant enzymes, the cells were suspended in lysis buffer (containing 4 mg of […]™ Protease Inhibitor Cocktail and 10 µL of Phosphatase Inhibitor Cocktail 3 in 1 mL of PBS; Sigma-Aldrich, St Louis, MO, USA). Subsequently, the cells were placed in liquid nitrogen for 30 min, followed by storage at −80 °C until further analysis.
(§7) Superoxide dismutase (SOD), glutathione peroxidase (GPx) and catalase (CAT) activities were assessed using a commercially purchased Cayman Chemicals Superoxide Dismutase Assay Kit, a Cayman Chemicals Glutathione Peroxidase Assay Kit and a Catalase Assay Kit (Cayman Chemicals, Ann Arbor, MI, USA), respectively, according to the manufacturer’s recommendations and based on a previous study. […] The level of change in absorbance was measured spectrophotometrically at the appropriate wavelength for the assay, i.e., for SOD in the range 440–460 nm, for GPx at 340 nm and for CAT at 540 nm.

RKO cells [5] = assay: Lipid peroxidation, MDA assay, RKO; assay type: cell-based; conditions: 10 µg/mL, 24 h
Protocol: (§8) In addition, two colorectal cancer cell lines, RKO and SW1116, were distinguished based on a different response to the EB5 derivative. […] Untreated cells were used as a negative control. Three biological replicates were performed. To examine the antioxidant capacity of the cells as well as lipid peroxidation and to evaluate the activity of antioxidant enzymes, the cells were suspended in lysis buffer (containing 4 mg of […]™ Protease Inhibitor Cocktail and 10 µL of Phosphatase Inhibitor Cocktail 3 in 1 mL of PBS; Sigma-Aldrich, St Louis, MO, USA). Subsequently, the cells were placed in liquid nitrogen for 30 min, followed by storage at −80 °C until further analysis. To assess the level of lipid peroxidation, the Malondialdehyde Assay Kit (Aoxre BioSciences, Burlingame, CA, USA) was used, according to the manufacturer’s recommendations.

[6] = system: SOD1 gene expression in RKO cells; assay: SOD1 mRNA, real-time RT-qPCR, RKO; assay type: cell-based; conditions: 10 µg/mL, 24 h
Protocol: as §3, §4, §5

HT29 cells = assay: MTT cytotoxicity assay, HT29; assay type: cell-based; conditions: Homo sapiens, HT-29; HT29, MTT, 24 h; read-out: IC50 value
Description: (§9) Control cells were not treated with the compounds.

CCD-841CoN cells = assay: cells; assay type: cell-based; conditions: Homo sapiens; CCD-841CoN normal cells, MTT, 24 h; read-out: IC50 value
Description: as §9

SW1116 cells [7] = assay: Lipid peroxidation, MDA assay, SW1116; assay type: cell-based; conditions: SW1116, 10 µg/mL, 24 h
Protocol: as §8

[8] = system: SOD1 gene expression in SW1116 cells; assay: SOD1 mRNA, real-time RT-qPCR, SW1116; assay type: cell-based; conditions: SW1116, 10 µg/mL, 24 h
Protocol: as §3, §4, §5

[9] = system: catalase (CAT) activity in SW1116 cells; assay: CAT activity in SW1116 cells; assay type: cell-based; conditions: SW1116, 10 µg/mL, 24 h
Protocol: as §3, §6
Superoxide dismutase (SOD), glutathione peroxidase (GPx) and catalase (CAT) activities were assessed using a commercially purchased Cayman Chemicals Superoxide Dismutase Assay Kit, a Cayman Chemicals Glutathione Peroxidase Assay Kit and a Catalase Assay Kit (Cayman Chemicals, Ann Arbor, MI, USA), respectively, according to the manufacturer’s recommendations and based on a previous study. The cell supernatant from previously prepared cell lysates of the tested lines provided material for further analyses. The level of change in absorbance was measured spectrophotometrically at the appropriate wavelength for the assay, i.e., for SOD in the range 440–460 nm, for GPx at 340 nm and for CAT at 540 nm.

[10] = system: CAT gene expression in SW1116 cells; assay: CAT mRNA, real-time RT-qPCR, SW1116; assay type: cell-based; conditions: SW1116, 10 µg/mL, 24 h
Protocol: as §3, §4, §5

HCT116 cells = assay: MTT cytotoxicity assay, HCT116; assay type: cell-based; conditions: Homo sapiens; HCT 116, MTT, 24 h; read-out: IC50 value
Description: as §9

Caco2 cells = assay: MTT cytotoxicity assay, Caco2; assay type: cell-based; conditions: Homo sapiens, Caco-2; Caco2, MTT, 24 h; read-out: IC50 value
DLD-1 cells = assay: MTT cytotoxicity assay, DLD-1; assay type: cell-based; conditions: Homo sapiens; DLD-1, MTT, 24 h; read-out: IC50 value
Description: as §9

RKO cells [11] = assay: Total antioxidant capacity (ABTS+), RKO; assay type: cell-based; conditions: 10 µg/mL, 24 h
Protocol: as §3, §6
The ABTS+ radical cation was used to assess the total antioxidant capacity (TAC) of the tested cells. The principle of the method is based on the reduction of the formed blue-green chromophore ABTS+ as a result of the reaction of ABTS (Sigma-Aldrich, St Louis, MO, USA) with potassium persulphate (Sigma-Aldrich, St Louis, MO, USA). The degree of decolorization of the ABTS+ radical cation depends on the antioxidant activity of the cells and is determined as a function of concentration and time in relation to Trolox reactivity (TEAC-Trolox equivalent antioxidant capacity).

[12] = system: CAT gene expression in RKO cells; assay: CAT mRNA, real-time RT-qPCR, RKO; assay type: cell-based; conditions: 10 µg/mL, 24 h
Protocol: as §3, §4, §5

[13] = system: superoxide dismutase (SOD) activity in RKO cells; assay: SOD activity in RKO cells; assay type: cell-based; conditions: 10 µg/mL, 24 h
Protocol: as §3, §6, §7

in vitro = assay type: cell-based; conditions: human
Description: as §9

[14] = system: catalase (CAT) activity in RKO cells; assay: CAT activity in RKO cells; assay type: cell-based; conditions: 10 µg/mL, 24 h
Protocol: as §3, §6, §7

[15] = system: SOD2 gene expression in RKO cells; assay: SOD2 mRNA, real-time RT-qPCR, RKO; assay type: cell-based; conditions: 10 µg/mL, 24 h
Protocol: as §3, §4, §5

| SMILES | viability at 10 µg/mL (SW1116 cells [1]) [%] | IC50 (SW1116 cells [1]) | SOD2 gene expression vs. cisplatin [2] | viability at 10 µg/mL (RKO cells [3]) [%] | IC50 (RKO cells [3]) | increase in MDA levels compared to the control cells (RKO cells [5]) | IC50 (HT29 cells) | IC50 (CCD-841CoN cells) | MDA level compared to the control (SW1116 cells [7]) | catalase activity compared to the control [9] | IC50 (HCT116 cells) | IC50 (Caco2 cells) | IC50 (DLD-1 cells) | further results |
| --- | --- | --- | --- | --- | --- | --- | --- | --- | --- | --- | --- | --- | --- | --- |
| C=C(C)[C@@H]1CC[C@]2(CO)CC[C@]3(C)[C@H](CC[C@@H]4[C@@]5(C)CC[C@H](O)C(C)(C)[C@@H]5CC[C@]43C)[C@@H]12 [Betulin, lup-20(29)-ene-3β,28-diol] | ≥ 50 | 9.77 µg/mL and 23.1 µM | Decreased SOD2 gene expression | ≥ 50 | 11.2 µg/mL and 25.2 µM | about 73.1% | 8.49 µg/mL and 20.1 µM | 5.26 µg/mL and 12.4 µM | did not cause changes | did not cause changes | 4.63 µg/mL and 11 µM | 11.2 µg/mL and 26.5 µM | 4.29 µg/mL and 10.2 µM | decrease in the viability (SW1116 cells [1]; SW1116, 10 µg/mL, 24 h): ≤ 50%; decrease in the viability (RKO cells [3]; 10 µg/mL): ≤ 50%; increase in SOD activity compared to the untreated cells [4]: about 32.3%; SOD1 gene expression vs. cisplatin-treated cells [6]: decrease in SOD1 gene expression; SOD1 gene expression vs. EB5 derivative [8]: statistically significant difference; SOD1 gene expression vs. cisplatin [8]: statistically significant difference; SOD1 gene expression vs. non-treated cells [8]: statistically significant decrease in mRNA expression; SOD1 gene expression vs. non-treated cells ([8]; listed as B): statistically significant difference; CAT gene expression vs. EB5 derivative [10]: decrease in expression was higher; CAT gene expression vs. cisplatin [10]: decrease in expression was higher; CAT gene expression vs. untreated cells [10]: statistically significant decrease in CAT gene expression; reduction in TAC compared to the control cells (RKO cells [11]): about 26.4%; CAT gene expression vs. untreated cells [12]: No statistically significant changes |
| C#CC(=O)OC[C@]12CC[C@@H](C(=C)C)[C@@H]1[C@H]1CC[C@@H]3[C@@]4(C)CC[C@H](O)C(C)(C)[C@@H]4CC[C@@]3(C)[C@]1(C)CC2 [EB5, 28-propynylobetulin] | ≥ 50 | 34.4 µg/mL and 69.5 µM | Decreased SOD2 gene expression | ≥ 50 | 12.2 µg/mL and 24.6 µM | about 98.0% | 8.25 µg/mL and 16.7 µM | > 100 µg/mL and > 202 µM | did not cause changes | did not cause changes | 16.7 µg/mL and 33.7 µM | 16.9 µg/mL and 34.2 µM | 11.1 µg/mL and 22.4 µM | SOD activity compared to cells treated with betulin [13]: modest increase; SOD2 gene expression vs. 5FU [2]: Decreased SOD2 gene expression; viability at 24 h, 100 μg/mL (in vitro): ≥ 50%; CAT activity compared to the betulin-treated cells [14]: slight decrease; CAT gene expression vs. 5FU [12]: significant increase in expression; CAT gene expression vs. cisplatin [12]: significant decrease in expression; SOD2 gene expression vs. cisplatin [15]: significant decrease in SOD2 gene expression |
